For test [1], the system named is HIV-1. Particulars: 100 μM, HUT78 cells; for p24 / reduction (%): Experiment 6, Day 7 HIV-1; for HIV-1 infection, result in words: summary of Experiment 6. On the procedure: In experiment 6 (Table 7 and FIG. 1), approximately 200,000 HUT78 cells were infected with HIV-1 at 25 TCID50 to test the inhibitory effect of GPG-NH2, RQG-NH2, KQG-NH2, ALG-NH2, GVG-NH2, VGG-NH2, ASG-NH2, SLG-NH2, and SPT-NH2. The HUT cells were resuspended in lml of RPMI 1640 medium supplemented with 10% (v/v) heat-inactivated fetal bovine serum (FBS, GIBCO), penicillin (100 u/ml), streptomycin (100 u/ml) and Polybrene (Sigma, 2 μg/ml) with or without the presence of the different small peptides (100 μM) mentioned above. Thereafter, the HIV-1 virus was added at 25 TCID50 in a volume of 20 μl. Cells were incubated with the virus at 37° C. for one hour and, subsequently, the cells were pelleted at 170×g for seven minutes. The cells were then washed three times in RPMI medium without peptides at room temperature by cell sedimentation at 170×g for seven minutes, as above. After the final wash, the cells were resuspended in RPMI culture medium containing the peptides in 24-well plate (Costar corporation) and were kept at 37° C. in 5% CO2 with humidity. Culture supernatants were collected when medium was changed at day 4, 7, and 11 post infection and viral p24 production was monitored by using an HIV-1 p24 ELISA kit (Abbott Laboratories, North Chicago, USA).

Test [2] deals with HIV-1 isolate p7300 (low PI). Put plainly: resistant HIV-1 isolates in PBMC, p24 ELISA. Particulars: Rito 0.1 μM, 14 days post infection. Type of test: cell-based. A general note: In an ELISA, binding on a coated surface is turned into a signal by an enzyme label.
The next test relates to HIV-1 SF-2 virus. The test can be described thus: electron microscopy of HIV-1 particles from infected HUT78 cells. The following applies: 0.5μM; cells fixed day 14. It is filed as cell-based. On the procedure: In this set of experiments, HUT78 cells were infected with HIV-1 SF-2 virus at 300TCID50 for 1 hr at 37° C. Subsequently, the infected cells were washed and pelleted 3 times, as described in Example 2. Thereafter, the cells were resuspended in RPMI culture medium supplemented with 10% FBS, antibiotics (100 u/ml) and polybrene (3.2 μg/ml). GPG-NH2 was then added into the cell cultures 3, 5 or 7 days post infection at concentration of 1 μM or 10 μM. A control sample was administered 0.5μM Ritonavir (a protease inhibitor).
The cells were cultured until day 14, at which point, the cells were fixed in 2.5% glutaraldehyde by conventional means. The fixed cells were then postfixed in 1% OSO4 and were dehydrated, embedded with epoxy resins, and the blocks were allowed to polymerize. Epon sections of virus infected cells were made approximately 60-80 nm thin in order to accommodate the width of the nucleocapsid. The sections were mounted to grids stained with 1.0% uranyl acetate and were analyzed in a Zeiss CEM 902 microscope at an accelerating voltage of 80 kV. The microscope was equipped with a spectrometer to improve image quality and a liquid nitrogen cooling trap was used to reduce beam damage. The grids having sections of control and GPG-NH2 incubated cells were examined in several blind studies.

The test system of test [3] is HIV-1 isolate p7141 (high PI). Put plainly: resistant HIV-1 isolates in PBMC, p24 ELISA. It is filed as cell-based. Particulars: Rito 0.1 μM, 14 days post infection.
Test [4] deals with HIV-1. The following applies: H9 cells; for Day 7 RT HIV-1 / Day 10 RT HIV-1: 100 μM. The text has this: (§1) In this example, the methods that were used to analyze the ability of various tripeptides to inhibit HIV-1, HIV-2, and SIV replication are disclosed. In Experiments 1 and 2, approximately 200,000 H9 cells were infected with HIV-1, HIV-2 or SIV at 25 TCID50 to test the inhibitory effect of the following synthesized tripeptides LKA-NH2, ILK-NH2, GPQ-NH2, GHK-NH2, GKG-NH2, ACQ-NH2, CQG-NH2, ARV-NH2, KAR-NH2, HKA-NH2, GAT-NH2, KAL-NH2, and GPG-NH2. Accordingly, the H9 cells were resuspended with or without the different peptides (approximately 100 μM) in 1 ml of RPMI 1640 medium supplemented with 10% (v/v) heat-inactivated fetal bovine serum (FBS), penicillin (100 u/ml), and streptomycin (100 u/ml), all available through GIBCO, and Polybrene (2 μg/ml), available through Sigma. Thereafter, viruses were added at 25 TCID50 in a volume of 20-30μl. Cells were incubated with virus at 37° C. for 1 hr then pelleted at 170×g for 7 minutes. The cells were then washed three times in RPMI medium without peptides at room temperature and pelleted at 170×g for 7 minutes, as above. After the final wash, the cells were resuspended in RPMI culture medium containing the peptides in a 24-well plate (Costar corporation) and were kept at 37° C. in 5% CO2 with humidity.
(§2) Culture supernatants were collected and analyzed when the medium was changed at 4, 7, 10, and 14 days post infection. To monitor the replication of virus, reverse transcriptase (RT) activity in the supernatants was assayed using a commercially available Lenti-RT activity kit. (Cavidi Tech, Uppsala, Sweden). The amount of RT was determined with the aid of a regression line of standards. The results are presented as absorbance values (OD) and higher absorbance indicates a higher protein concentration and greater viral infection. Syncytium formation was also monitored by microscopic examination.
In Experiment 3, (Table 4), approximately 200,000 H9 cells were infected with HIV-1, HIV-2 or SIV at 25 TCID50 to test the inhibitory effect of different concentrations of peptides GPG-NH2, GKG-NH2 and CQG-NH2 and combinations of these peptides (the indicated concentration corresponds to the concentration of each tripeptide). As above, H9 cells were resuspended with or without the different peptides at varying concentrations in 1 ml of RPMI 1640 medium supplemented with 10% (v/v) heat-inactivated fetal bovine serum (FBS), penicillin (100 u/ml), and streptomycin (100 u/ml), and Polybrene (2 μg/ml). Thereafter, viruses were added at 25 TCID50 in a volume of 20-30 μl. Cells were incubated with the indicated virus at 37° C. for 1 hr then pelleted at 170×g for 7 minutes. The cells were then washed three times in RPMI medium without peptides at room temperature and pelleted at 170×g for 7 minutes, as above. After the final wash, the cells were resuspended in RPMI culture medium containing the peptides in a 24-well plate (Costar corporation) and kept at 37° C. in 5% CO2 with humidity.
Culture supernatants were collected when the medium was changed at 4, 7, and 11 days post infection. As above, the replication of each virus was monitored by detecting reverse transcriptase (RT) activity in the supernatants using the Lenti-RT activity kit. (Cavidi Tech). The amount of RT was determined with the aid of a regression line of standards. The results are presented as absorbance values (OD) and higher absorbance indicates a higher protein concentration and greater viral infection.
In Experiment 4, (Table 5) approximately 200,000 H9 cells were infected with HIV-1 at 25 TCID50 to test the inhibitory effect of different concentrations of peptides GPG-NH2, GKG-NH2 and CQG-NH2 and combinations of these peptides (the indicated concentration corresponds to the total concentration of tripeptide).

The next test has as its system HIV-2. Put plainly: HIV-2 infectivity assay in H9 cells, RT activity in supernatant. It is filed as cell-based.
In test [5] the test system is HIV-1. Particulars: 100 μM, H9 cells.
From the text: as §1, §2

Another test deals with SIV. Put plainly: SIV infectivity assay in H9 cells, RT activity in supernatant. It is filed as cell-based.

Like-named read-outs stand apart in the source and are kept apart here. Peptide text beside a SMILES is read from it.

As to `CC(C)C[C@H](NC(=O)[C@H](C)N)C(=O)NCC(N)=O` [ALG-NH2, alanyl-leucyl-glycine amide] (H-Ala-Leu-Gly-NH2), in the test with HIV-1 [1], the “p24” value came to 42 pg/mL; the “reduction (%)” value is ~100%; the “HIV-1 infection, result in words” value was “inhibited and/or prevented HIV-1 infection”.

Turning to `C[C@H](N)C(=O)N[C@@H](CO)C(=O)NCC(N)=O` [ASG-NH2, alanyl-seryl-glycine amide] (H-Ala-Ser-Gly-NH2), in the test on HIV-1 [1], the “p24” value worked out at 15000 pg/mL and the “reduction (%)” value came out at 25%.

With `CC(C)[C@H](NC(=O)CN)C(=O)NCC(N)=O` [GVG-NH2, glycyl-valyl-glycine amide] (H-Gly-Val-Gly-NH2), in the test on HIV-1 [1], the “p24” value was found to be 15000 pg/mL and the “reduction (%)” value was 25%.

Turning to `NCCCC[C@H](N)C(=O)N[C@@H](CCC(N)=O)C(=O)NCC(N)=O` [KQG-NH2, lysyl-glutaminyl-glycine amide] (H-Lys-Gln-Gly-NH2), in the test with HIV-1 [1], the “p24” value amounted to 154 pg/mL; the “reduction (%)” value is given as ~100%; the “HIV-1 infection, result in words” value is on record as “inhibited and/or prevented HIV-1 infection”. For the same compound, in the test on HIV-1 [1] (listed as KQG—NH2), the “reduction (%)” value was 99%.

With `N=C(N)NCCC[C@H](N)C(=O)N[C@@H](CCC(N)=O)C(=O)NCC(N)=O` [RQG-NH2, arginyl-glutaminyl-glycine amide] (H-Arg-Gln-Gly-NH2), in the test on HIV-1 [1], the “p24” value is 113 pg/mL; the “reduction (%)” value is reported as ~100%; the “HIV-1 infection, result in words” value is “inhibited and/or prevented HIV-1 infection”. Further, the “reduction (%)” value with HIV-1 [1] (listed as RQG—NH2) was 99%.

Turning to `CC(C)c1nc(CN(C)C(=O)N[C@H](C(=O)N[C@@H](Cc2ccccc2)C[C@H](O)[C@H](Cc2ccccc2)NC(=O)OCc2cncs2)C(C)C)cs1` [Ritonavir, reference compound], in test [2], the “% reduction” value is listed as “(56%)” and the “HIV-1 p24” value stood at 64000 pg/mL. Besides, the “viral particle structure, electron microscopy” value with HIV-1 SF-2 virus is “malformed structures that did not have a discemable nucleocapsid”. In test [3], the “% reduction” value was “(14%)” and the “HIV-1 p24” value was determined as 98000 pg/mL.

As to `CC(C)C[C@H](NC(=O)[C@@H](N)CO)C(=O)NCC(N)=O` [SLG-NH2, seryl-leucyl-glycine amide] (H-Ser-Leu-Gly-NH2), in the test with HIV-1 [1], the “p24” value was 114 pg/mL; the “reduction (%)” value is ~100%; the “HIV-1 infection, result in words” value is listed as “inhibited and/or prevented HIV-1 infection”. Moreover, the “reduction (%)” value with HIV-1 [1] (listed as SLG—NH2) came to 99%.

Regarding `C[C@@H](O)[C@H](NC(=O)[C@@H]1CCCN1C(=O)[C@@H](N)CO)C(N)=O` [SPT-NH2, seryl-prolyl-threonine amide] (H-Ser-Pro-Thr-NH2), in the test on HIV-1 [1], the “p24” value was determined as 15000 pg/mL and the “reduction (%)” value stood at 25%.

`CC(C)[C@H](N)C(=O)NCC(=O)NCC(N)=O` [VGG-NH2, valyl-glycyl-glycine amide] (H-Val-Gly-Gly-NH2): in the test with HIV-1 [1], the “p24” value came out at 10000 pg/mL and the “reduction (%)” value amounted to 50%.

As to Lys-Ala-Leu [KAL-NH2], the “Day 7 RT HIV-1” value came to 0.246 OD in the test on HIV-1 [4] (Experiment 1) and 0.999 OD in the test on HIV-1 [4] (Experiment 2). In addition, the “Day 10 RT HIV-1” value was found to be 1.995 OD in the test with HIV-1 [4] (Experiment 1) and 2.791 OD with HIV-1 [4] (Experiment 2). In addition, in the test on HIV-1 [4] (summary of Experiments 1-5), the “HIV-1 infection, result in words” value was “failed to prevent infection”. For the same compound, the “Day 7 RT HIV-2” value with HIV-2 (Experiment 1, 100 μM) was found to be 3.372 OD; in the test on HIV-2 (Experiment 2, 100 μM) it was 1.757 OD. Moreover, the “Day 10 RT HIV-2” value was 2.749 OD in the test on HIV-2 (Experiment 1, 100 μM) and 2.383 OD in the test with HIV-2 (Experiment 2, 100 μM). In addition, the “HIV-1 Syncytia” value in the test with HIV-1 [5] (Experiment 1) and in the test on HIV-1 [5] (Experiment 2) was “pos” in each case. Besides, the “Day 7 RT SIV” value is on record as 1.091 OD in the test with SIV (Experiment 1, 100 μM) and 0.511 OD with SIV (Experiment 2, 100 μM). Further, the “Day 10 RT SIV” value is listed as 2.524 OD in the test with SIV (Experiment 1, 100 μM) and 2.663 OD in the test with SIV (Experiment 2, 100 μM).

The values are drawn from patent publication US20020091086A1, “Peptides that block viral infectivity and methods of use thereof” (priority 1999, published 2002).
